From patent publication US11965039B2, “Compstatin analogues and their medical uses” (priority 2018, dated 2024) come the findings set out here.

By pIC50 is commonly meant the negative decadic logarithm of the IC50, by convention in mol/L.

Data set [1] is described as follows: Solubility test at 10 mg/mL (visual inspection and light scattering). The data set is classed as physicochemical.
In data set [2] the test system is classical complement pathway. Briefly: In vitro haemolysis assay (inhibition of classical complement pathway). As to conditions: human serum, sensitized sheep red blood cells. The data set is classed as cell-based, human. Put shortly:
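Compound dilutions preincubated 15 min at room temperature with diluted human serum (titrated per batch for 70-90% maximal haemolysis), then antibody-sensitized sheep RBC (10^7/well) added for 30 min at 37 °C in Tris/casein buffer, pH 7.4. Stopped with EDTA; haemolysis read at 405 nm; IC50 by 4PL fit.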

Setting [3] is: Table 3, given as upper bounds, read-out: IC50, inhibition of hemolysis.

pIC50: −log10 of the molar value. Where two headings read alike, the source gives them in different places. Starred links: 1 amine or outer side, 2 acyl side, 3 side chain; linkers in the order of their positions; H or OH if unused. Positions of bridges follow the written chain, without caps; N, C: chain ends. Non-standard residues stand in square brackets, D forms with d. Residues, ends and D or L forms follow the SMILES beside them. Groups on a side chain read outwards from the residue. *: point of attachment. Trp(1-Me) = Cn1cc(C[C@H](N)C(=O)O)c2ccccc21; C18 diacid = O=C(O)CCCCCCCCCCCCCCCCC(=O)*; γGlu = O=C(O)[C@H](CCC(=O)[*:2])N[*:1]; 2Nal = N[C@@H](Cc1ccc2ccccc2c1)C(=O)O; Sar = CNCC(=O)O

As to `CC[C@H](C)[C@@H]1NC(=O)[C@@H](NC(=O)[C@H](Cc2ccc(O)cc2)NC(=O)[C@H](C)NC(=O)[C@H](CO)NC(=O)CNC(=O)[C@H](CCC(=O)O)NC(C)=O)CSSC[C@@H](C(=O)N(C)CC(=O)N[C@@H](CCC(=O)O)C(=O)NCC(=O)N[C@@H](CCC(=O)O)C(=O)N[C@@H](CCCCNC(=O)CC[C@H](NC(=O)CNC(=O)CC[C@H](NC(=O)CCCCCCCCCCCCCCCCC(=O)O)C(=O)O)C(=O)O)C(N)=O)NC(=O)[C@H](CCCNC(=N)N)NC(=O)[C@H](Cc2c[nH]cn2)NC(=O)[C@H](CCC(=O)O)NC(=O)CNC(=O)[C@H](Cc2c[nH]c3ccccc23)NC(=O)[C@H](CC(=O)O)NC(=O)[C@H](CCC(N)=O)NC(=O)[C@H](Cc2cn(C)c3ccccc23)NC1=O` [Compound 109] (Ac-EGSAYCI[Trp(1-Me)]QDWGEHRC[Sar]EGEK([γGlu-Gly-γGlu-C18 diacid])-NH2; disulfide 6-16), in data set [1] (Acetate pH 4), the “Solubility, Condition 1” value was “− (“−” denotes lack of solubility at the given condition, as UV absorbance at 340 nm exceeds 0.1 AU and/or it is visibly turbid or contains particles)”. Moreover, the “Solubility, Condition 2” value in data set [1] (Acetate pH 5) was “+ (“+” denotes solubility at the given condition, as determined by UV absorbance being less than 0.1 AU at 340 nm and the sample being clear when manually inspected)”. In data set [1] (Phosphate pH 6), the “Solubility, Condition 3” value is “+ (“+” denotes solubility at the given condition, as determined by UV absorbance being less than 0.1 AU at 340 nm and the sample being clear when manually inspected)”. The “Solubility, Condition 4” value in data set [1] (Phosphate pH 7) is “+ (“+” denotes solubility at the given condition, as determined by UV absorbance being less than 0.1 AU at 340 nm and the sample being clear when manually inspected)”. Besides, the “Solubility, Condition 5” value in data set [1] (Phosphate pH 7.5) is “+ (“+” denotes solubility at the given condition, as determined by UV absorbance being less than 0.1 AU at 340 nm and the sample being clear when manually inspected)”. The pIC50 in data set [2] (setting [3]) is > 6.60.
For `CC[C@H](C)[C@@H]1NC(=O)[C@@H](NC(=O)[C@H](Cc2ccccc2)NC(=O)[C@H](CCC(=O)O)NC(=O)[C@H](CO)NC(C)=O)CSSC[C@@H](C(=O)N(C)CC(=O)N[C@@H](CCC(=O)O)C(N)=O)NC(=O)[C@H](CCCNC(=N)N)NC(=O)[C@H](Cc2c[nH]cn2)NC(=O)[C@H](CCC(=O)O)NC(=O)CN(C)C(=O)[C@H](Cc2c[nH]c3ccccc23)NC(=O)[C@H](CC(=O)O)NC(=O)[C@H](CCC(N)=O)NC(=O)[C@H](Cc2cn(C)c3ccccc23)NC1=O` [Compound 79, Ac-SEFC(1)I[1-Me-Trp]QDW[Sar]EHRC(1)[Sar]E-NH2] (Ac-SEFCI[Trp(1-Me)]QDW[Sar]EHRC[Sar]E-NH2; disulfide 4-14), the “Solubility, Condition 1” value in data set [1] (Acetate pH 4) is given as “− (“−” denotes lack of solubility at the given condition, as UV absorbance at 340 nm exceeds 0.1 AU and/or it is visibly turbid or contains particles)”. The “Solubility, Condition 2” value in data set [1] (Acetate pH 5) is listed as “− (“−” denotes lack of solubility at the given condition, as UV absorbance at 340 nm exceeds 0.1 AU and/or it is visibly turbid or contains particles)”. For the same compound, in data set [1] (Phosphate pH 6), the “Solubility, Condition 3” value was “+ (“+” denotes solubility at the given condition, as determined by UV absorbance being less than 0.1 AU at 340 nm and the sample being clear when manually inspected)”. The “Solubility, Condition 4” value in data set [1] (Phosphate pH 7) was “+ (“+” denotes solubility at the given condition, as determined by UV absorbance being less than 0.1 AU at 340 nm and the sample being clear when manually inspected)”. Further, the “Solubility, Condition 5” value in data set [1] (Phosphate pH 7.5) was “+ (“+” denotes solubility at the given condition, as determined by UV absorbance being less than 0.1 AU at 340 nm and the sample being clear when manually inspected)”. Moreover, the pIC50 in data set [2] (setting [3]) was > 7.00.
For the compound `CC[C@H](C)[C@H](NC(C)=O)C(=O)N[C@H]1CSSC[C@@H](C(=O)N[C@H](C(=O)N[C@@H](CCC(=O)O)C(=O)NCC(=O)N[C@@H](CCC(=O)O)C(N)=O)[C@@H](C)O)NC(=O)[C@H](CCCNC(=N)N)NC(=O)[C@H](Cc2c[nH]cn2)NC(=O)[C@H](CCC(=O)O)NC(=O)CNC(=O)[C@H](Cc2c[nH]c3ccccc23)NC(=O)[C@H](CC(=O)O)NC(=O)[C@H](CCC(N)=O)NC(=O)[C@H](Cc2c[nH]c3ccccc23)NC(=O)[C@H]([C@@H](C)CC)NC1=O` [Compound 24] (Ac-ICIWQDWGEHRCTEGE-NH2; disulfide 2-12), the “Solubility, Condition 1” value was “− (“−” denotes lack of solubility at the given condition, as UV absorbance at 340 nm exceeds 0.1 AU and/or it is visibly turbid or contains particles)” in data set [1] (Acetate pH 4); “cloudy” in data set [1] (acetate pH 4.0, visual inspection and absorbance). The “Solubility, Condition 2” value is “− (“−” denotes lack of solubility at the given condition, as UV absorbance at 340 nm exceeds 0.1 AU and/or it is visibly turbid or contains particles)” in data set [1] (Acetate pH 5); “cloudy” in data set [1] (acetate pH 5.0, visual inspection and absorbance). Besides, the “Solubility, Condition 3” value in data set [1] (Phosphate pH 6) is listed as “− (“−” denotes lack of solubility at the given condition, as UV absorbance at 340 nm exceeds 0.1 AU and/or it is visibly turbid or contains particles)”; in data set [1] (phosphate pH 6.0, visual inspection and absorbance), “cloudy”. In data set [1] (Phosphate pH 7), the “Solubility, Condition 4” value was “+ (“+” denotes solubility at the given condition, as determined by UV absorbance being less than 0.1 AU at 340 nm and the sample being clear when manually inspected)”. In data set [1] (Phosphate pH 7), the “Solubility, condition 4” value was “good”. Also, the “Solubility, Condition 5” value in data set [1] (Phosphate pH 7.5) is “+ (“+” denotes solubility at the given condition, as determined by UV absorbance being less than 0.1 AU at 340 nm and the sample being clear when manually inspected)”. Moreover, the “Solubility, condition 5” value in data set [1] (Phosphate pH 7.5) is on record as “good”. Besides, the pIC50 is > 7.00 in data set [2] (setting [3]) and 7.05 in data set [2] (Table 4, valine 3 vs isoleucine 3 pairs, read-out: CP hemolysis IC50).
As for `CC[C@H](C)[C@H](NC(=O)[C@H](C)NC(=O)[C@H](CO)NC(C)=O)C(=O)N[C@H]1CSSC[C@@H](C(=O)N(C)CC(=O)N[C@@H](CCC(=O)O)C(N)=O)NC(=O)[C@H](CCCNC(=N)N)NC(=O)[C@H](Cc2c[nH]cn2)NC(=O)[C@H](CCC(=O)O)NC(=O)CNC(=O)[C@H](Cc2c[nH]c3ccccc23)NC(=O)[C@H](CC(=O)O)NC(=O)[C@H](CCC(N)=O)NC(=O)[C@H](Cc2c[nH]c3ccccc23)NC(=O)[C@H]([C@@H](C)CC)NC1=O` [Compound 41] (Ac-SAICIWQDWGEHRC[Sar]E-NH2; disulfide 4-14), in data set [1] (Acetate pH 4), the “Solubility, Condition 1” value is “− (“−” denotes lack of solubility at the given condition, as UV absorbance at 340 nm exceeds 0.1 AU and/or it is visibly turbid or contains particles)”. Moreover, the “Solubility, Condition 2” value in data set [1] (Acetate pH 5) is recorded as “− (“−” denotes lack of solubility at the given condition, as UV absorbance at 340 nm exceeds 0.1 AU and/or it is visibly turbid or contains particles)”. The “Solubility, Condition 3” value in data set [1] (Phosphate pH 6) is “+ (“+” denotes solubility at the given condition, as determined by UV absorbance being less than 0.1 AU at 340 nm and the sample being clear when manually inspected)”. Besides, in data set [1] (Phosphate pH 7), the “Solubility, Condition 4” value was “+ (“+” denotes solubility at the given condition, as determined by UV absorbance being less than 0.1 AU at 340 nm and the sample being clear when manually inspected)”. Further, the “Solubility, Condition 5” value in data set [1] (Phosphate pH 7.5) is “+ (“+” denotes solubility at the given condition, as determined by UV absorbance being less than 0.1 AU at 340 nm and the sample being clear when manually inspected)”. Besides, in data set [2] (setting [3]), the pIC50 is > 6.60.
For the compound `CC[C@H](C)[C@@H]1NC(=O)[C@@H](NC(=O)[C@H](Cc2ccc(O)cc2)NC(C)=O)CSSC[C@@H](C(=O)N[C@H](C(=O)NCC(=O)N[C@@H](C)C(=O)N[C@@H](CCC(=O)O)C(=O)N[C@@H](CO)C(N)=O)[C@@H](C)O)NC(=O)[C@H](CCCNC(=N)N)NC(=O)[C@H](Cc2c[nH]cn2)NC(=O)[C@H](CCC(=O)O)NC(=O)CNC(=O)[C@H](Cc2c[nH]c3ccccc23)NC(=O)[C@H](CC(=O)O)NC(=O)[C@H](CCC(N)=O)NC(=O)[C@H](Cc2ccc3ccccc3c2)NC1=O` [Compound 65] (Ac-YCI[2Nal]QDWGEHRCTGAES-NH2; disulfide 2-12), the “Solubility, Condition 1” value in data set [1] (Acetate pH 4) is on record as “− (“−” denotes lack of solubility at the given condition, as UV absorbance at 340 nm exceeds 0.1 AU and/or it is visibly turbid or contains particles)”. Moreover, the “Solubility, Condition 2” value in data set [1] (Acetate pH 5) is on record as “− (“−” denotes lack of solubility at the given condition, as UV absorbance at 340 nm exceeds 0.1 AU and/or it is visibly turbid or contains particles)”. Moreover, in data set [1] (Phosphate pH 6), the “Solubility, Condition 3” value was “+ (“+” denotes solubility at the given condition, as determined by UV absorbance being less than 0.1 AU at 340 nm and the sample being clear when manually inspected)”. Further, the “Solubility, Condition 4” value in data set [1] (Phosphate pH 7) was “+ (“+” denotes solubility at the given condition, as determined by UV absorbance being less than 0.1 AU at 340 nm and the sample being clear when manually inspected)”. Also, in data set [1] (Phosphate pH 7.5), the “Solubility, Condition 5” value is “+ (“+” denotes solubility at the given condition, as determined by UV absorbance being less than 0.1 AU at 340 nm and the sample being clear when manually inspected)”. In addition, the pIC50 in data set [2] (setting [3]) is > 7.00.
For the compound `CC[C@H](C)[C@@H]1NC(=O)[C@@H](NC(=O)[C@H](Cc2ccccc2)NC(=O)[C@H](C)NC(=O)[C@H](CO)NC(=O)CNC(=O)[C@H](CCC(=O)O)NC(C)=O)CSSC[C@@H](C(=O)N(C)CC(=O)N[C@@H](CCC(=O)O)C(N)=O)NC(=O)[C@H](CCCNC(=N)N)NC(=O)[C@H](Cc2c[nH]cn2)NC(=O)[C@H](CCC(=O)O)NC(=O)CNC(=O)[C@H](Cc2c[nH]c3ccccc23)NC(=O)[C@H](CC(=O)O)NC(=O)[C@H](CCC(N)=O)NC(=O)[C@H](Cc2c[nH]c3ccccc23)NC1=O` [Compound 45] (Ac-EGSAFCIWQDWGEHRC[Sar]E-NH2; disulfide 6-16), in data set [1] (Acetate pH 4), the “Solubility, Condition 1” value is “− (“−” denotes lack of solubility at the given condition, as UV absorbance at 340 nm exceeds 0.1 AU and/or it is visibly turbid or contains particles)”. In data set [1] (Acetate pH 5), the “Solubility, Condition 2” value was “+ (“+” denotes solubility at the given condition, as determined by UV absorbance being less than 0.1 AU at 340 nm and the sample being clear when manually inspected)”. For the same compound, in data set [1] (Phosphate pH 6), the “Solubility, Condition 3” value was “+ (“+” denotes solubility at the given condition, as determined by UV absorbance being less than 0.1 AU at 340 nm and the sample being clear when manually inspected)”. In addition, the “Solubility, Condition 4” value in data set [1] (Phosphate pH 7) was “+ (“+” denotes solubility at the given condition, as determined by UV absorbance being less than 0.1 AU at 340 nm and the sample being clear when manually inspected)”. For the same compound, the “Solubility, Condition 5” value in data set [1] (Phosphate pH 7.5) was “+ (“+” denotes solubility at the given condition, as determined by UV absorbance being less than 0.1 AU at 340 nm and the sample being clear when manually inspected)”. Besides, the pIC50 in data set [2] (setting [3]) was > 7.00.
